Reference: patent US8642516B2, “Chemically-defined arrays for screening cell-substrate interactions” (Wisconsin Alumni Research Foundation, priority 2012, dated 2014)

Tests used:
hMSC [1] = experiment: Alkaline phosphatase activity staining of hMSCs on SAM arrays; type: cell-based, human; conditions: high GRGDSP density SAM spots, 7 days
Excerpt: In this SAM array approach, each spot was designed to contain the same total molar density (mol/cm^2) of peptide from spot to spot. Therefore, control over individual peptide density was achieved by mixing scrambled BR-BP and HPG-BP and mutant GRGESP (SEQ ID NO:19) peptides with functional BR-BP, HPG-BP or GRGDSP (SEQ ID NO:18) peptides, respectively. Therefore, in a typical SAM array, SAMs were locally formed within spots using an alkanethiolate mixture of 95% HS—C11-EG3-OH and 5% HS—C11-EG6-COOH to create substrates with a total of 5% carboxylate groups for peptide conjugation. Here, “X %” refers to the mole percent of alkanethiolate present during SAM formation and subsequently the approximate amount of an alkanethiolate present on the surface after SAM formation. To regulate the density of active peptide present in each spot, mutant and scramble versions of peptides were included during peptide conjugation. […] As mentioned previously, peptide concentrations were easily measured using UV/Vis since all peptides either contained residues that absorbed strongly at 280 nm, or were engineered to contain tryptophan residues in the poly-glycine tail. […]

hMSC [2] = experiment: hMSC spreading (projected cell area) on SAM array spots presenting GRGDSP; type: cell-based, human; conditions: hMSCs
Procedure: For cell assays on SAM arrays, HUVECs or hMSCs were removed from plastic culture plates using a 0.05% trypsin solution, resuspended in media, and seeded onto SAM arrays in sterile polystyrene Petri dishes. After allowing cells to attach for ˜1 hour in a humidified incubator at 37° C. and 5% CO2, arrays were dipped in warm media to remove loosely attached cells and then transferred to a rectangular multidish (Thermo Scientific/Nunc, Rochester, N.Y.) with warm media and imaged ˜4 hours later serving as “0 hr.” For the initial time point and subsequent time-lapse imaging, arrays were placed on an incubated stage and each array spot was imaged every 15 minutes for 72 hours. […]
Relative cell attachment at 0 hrs was quantified by counting the number of attached cells per spot and normalizing cell numbers to maximal attachment conditions. Normalized cell number was calculated by dividing the number of cells per spot at 72 hours (C72) to the cell number observed on the same spot at 0 hrs (C0). Relative proliferation was determined by dividing normalized cell numbers at 72 hours by the maximum average normalized cell number observed across GRGDSP density conditions. Similarly, relative spreading was determined by dividing projected cell areas to the maximum average projected cell area observed across GRGDSP density conditions. […]

GRGDSP
staining for alkaline phosphatase activity (hMSC [1]): increased staining for alkaline phosphatase activity
maximal projected cell area (hMSC [2]; 24 hrs, SAM spots with 1.6% and 5% GRGDSP): greater than 4000 μm^2
change in projected cell area from 24 to 72 hrs (hMSC [2]; across several GRGDSP densities): slight decreases
